What was measured:
Format in all cases: cell-based
[1] = tested on: TCC97-7 bladder cancer tumour cells carrying the Ser249Cys mutation of FGF receptor 3; experiment: Inhibition of serum-induced proliferation of TCC97-7 bladder cancer cells (count of Hoechst 33342-labelled nuclei after 3 days); conditions: TCC97-7 cells in presence of serum
Description: To do this, 2000 cells are seeded in the morning in 50 μl of complete medium (Ham-F/12, 1% FCS, 2 mM glutamine, non-essential amino acids, sodium pyruvate, 1% insulin/transferrin/selenium, hydrocortisone). In the evening, 50 μl of the various compounds are added at 0.02, 0.2, 2 or 20 μM after dilution in complete culture medium in order to obtain final concentrations of 0.01, 0.1, 1 and 10 μM. After 3 days, the cell proliferation is evaluated by measuring the number of nuclei at the bottom of each well corresponding to a number of cells. The nuclei are detected by means of labelling with Hoechst 33342 (Invitrogen, ref H3570). 100 μl of Hoechst 33342 diluted to 1/5000th in PBS are added to each well for 30 min at ambient temperature on non-fixed cells. The nuclei are detected by fluorescence at 350 nm at ×2 magnification with an Operetta (PerkinElmer) using the Acapella (PerkinElmer) imaging software and analysed using the Columbus (PerkinElmer) image analysis software. The percentage inhibition of the cell proliferation is calculated by considering the number of nuclei present in the wells in which the TCC97-7 cells are cultured in the absence of FGF-R antagonists to be 0% inhibition. 100% inhibition would correspond to a well no longer containing cells.

[2] = Cytotoxic effect: percentage of permeabilized (very fluorescent, Hoechst 33342) TCC97-7 cells; conditions: human, read-out: Cytotoxicity (% of permeable cells)
Description: (§1) In parallel to their antiproliferative capacity, the potential cytotoxic effect of the FGF-R antagonists is measured by means of quantifying the number of cells of which the membranes are permeabilized. The appearance of pores in the plasma membrane of the cells corresponds to a state of cell death which enables the Hoechst 33342 to penetrate more easily into the cell. This is reflected by a very strong increase in the amount of fluorescence detected in the nuclei. The percentage of cells in a state of cell death is calculated by the ratio between the number of very fluorescent nuclei to the total number of nuclei, multiplied by 100. The observations are carried out in the same way as the quantification of the nuclei for the cell proliferation.

[3] = tested on: TCC97-7 bladder cancer cells carrying the Ser249Cys mutation of FGF receptor 3; experiment: Reduction of intracellular ATP content of TCC97-7 cells (Cell Titer-Glo, 3 days, serum-supplemented medium); conditions: TCC97-7 cells in presence of serum
Description: Evaluation of the Capacity of the FGF-R Antagonists to Reduce the ATP Content of TCC97-7 Bladder Cancer Cells Carrying the Ser249Cys Mutation of FGF Receptor 3, Cultured in a Serum-Supplemented Medium
To do this, 3000 cells are seeded in 50 μl of complete medium (Ham-F/12, 1% FCS, […], non-essential amino acids, sodium pyruvate, 1% insulin/transferrin/selenium, hydrocortisone). 16 hours later, 50 μl of the various compounds are added at 0.2, 2, 20 and 60 μM after dilution in complete culture medium in order to obtain final concentrations of 0.1, 1, 10 and 30 μM. After 3 days, the ATP content of the cells is measured using the Cell Titer-Glo® Luminescent Cell Viability Assay kit (Promega, France) according to the supplier's recommendations. The percentage inhibition of the amount of intracellular ATP is calculated by considering the ATP content of the cells cultured in the absence of antagonist to be 0% inhibition. 100% inhibition would correspond to a well in which the ATP content is zero.

[4] = tested on: TCC97-7 bladder cancer tumour cells carrying the Ser249Cys mutation of FGF receptor 3; experiment: Cytotoxic effect: percentage of permeabilized (very fluorescent, Hoechst 33342) TCC97-7 cells; conditions: 3 days
Description: as §1

| Structure (SMILES) | Inhibition of proliferation (%) ([1]; 0.01 μM) | Inhibition of proliferation (%) ([1]; 0.1 μM) | Inhibition of proliferation (%) ([1]; 1 μM) | Inhibition of proliferation (%) ([1]; 10 μM) | Cytotoxicity (% of permeable cells) ([4]; 0.01 μM) | Cytotoxicity (% of permeable cells) ([4]; 0.1 μM) | Cytotoxicity (% of permeable cells) ([4]; 1 μM) | Cytotoxicity (% of permeable cells) ([4]; 10 μM) | Inhibition of the amount of intracellular ATP (%) ([3]; 0.1 μM) | Inhibition of the amount of intracellular ATP (%) ([3]; 1 μM) | Inhibition of the amount of intracellular ATP (%) ([3]; 10 μM) | other results |
| --- | --- | --- | --- | --- | --- | --- | --- | --- | --- | --- | --- | --- |
| CCCn1c(C)nc2ccc(C(=O)c3nc(-c4cccc(C(N)=O)c4)c4ccccn34)cc2c1=O [compound 55, 3-{3-[(2-Methyl-4-oxo-3-propyl-3,4-dihydroquinazolin-6-yl)carbonyl]imidazo[1,5-a]pyridin-1-yl}benzamide] | – | – | – | – | – | – | – | – | – | – | – | inhibition at 0.01 µM ([1]; 72 h, 0.01 μM): 3%; inhibition at 0.1 µM ([1]; 72 h, 0.1 μM): -2%; inhibition at 1 µM ([1]; 72 h, 1 μM): 29%; inhibition at 10 µM ([1]; 72 h, 10 μM): 47%; cytotoxicity at 3 days, 0.01 µM ([2]; 0.01 μM): 5%; cytotoxicity at 3 days, 0.1 µM ([2]; 0.1 μM): 5%; cytotoxicity at 3 days, 1 µM ([2]; 1 μM): 6%; cytotoxicity at 3 days, 10 µM ([2]; 10 μM): 6%; inhibition at 0.1 µM ([3]; 72 h, 0.1 μM, read-out: Inhibition of the amount of intracellular ATP (%)): 11%; inhibition at 1 µM ([3]; 72 h, 1 μM, read-out: Inhibition of the amount of intracellular ATP (%)): 17%; inhibition at 10 µM ([3]; 72 h, 10 μM, read-out: Inhibition of the amount of intracellular ATP (%)): 57% |
| CCCn1c(=O)n(CCOc2ccc(F)cc2)c(=O)c2cc(C(=O)c3nc(-c4cccc(C(=O)[O-])c4)c4ccccn34)ccc21.[Na+] [compound 221, Sodium salt of 3-[3-({3-[2-(4-fluorophenoxy)ethyl]-1-propyl-2,4-dioxo-1,2,3,4-tetrahydroquinazolin-6-yl}carbonyl)imidazo[1,5-a]pyridin-1-yl]benzoic acid] | 5% | 27% | 80% | 85% | 4% | 5% | 6% | 7% | −2% | 7% | 73% | – |
| Cn1c(=O)n(Cc2ccc(F)cc2)c(=O)c2cc(C(=O)c3nc(-c4cccc(C(=O)[O-])c4)c4ccccn34)ccc21.[Na+] [compound 49, Sodium salt of 3-(3-{[3-(4-fluorobenzyl)-1-methyl-2,4-dioxo-1,2,3,4-tetrahydroquinazolin-6-yl]carbonyl}imidazo[1,5-a]pyridin-1-yl)benzoic acid] | – | 9% | 55% | 81% | 5% | 5% | 6% | 12% | −2% | 14% | 67% | – |
| Cc1ccc(Cn2c(=O)c3cc(C(=O)c4nc(-c5cccc(C(=O)[O-])c5)c5ccccn45)ccc3n(C)c2=O)s1.[Na+] [compound 291] | 1% | 5% | 40% | 81% | 2% | 2% | 2% | 4% | 8% | 27% | 71% | – |
